Measured values from patent publication US8377434B2, “Cosmetic composition for exfoliating skin keratin” (Amorepacific Corporation, priority 2006, dated 2013).

Tested on: skin
Experiment: in vivo and ex vivo studies of N-acetyl glucosamine on skin

## CC(=O)N[C@H]1C(O)O[C@H](CO)[C@@H](O)[C@@H]1O (some centres unmarked) [N-acetyl glucosamine]
  production of hyaluronic acid: promote the production of hyaluronic acid
In vivo and ex vivo studies
  improvement of excessive pigmentation, skin tone and barrier function: effective in improving excessive pigmentation, skin tone and barrier function
